Values after ≈ are worked out from the molar mass of the structure shown.
conditions: not given

Compound | solubility
Nc1ccc(-c2ccc(Cl)cc2)cc1 | 0.023 mM (≈ 4.68 µg/mL)
Cc1cc(C)c(N)cc1C | 11.1 mM (≈ 1500 µg/mL)
O=C(O)c1ccc(Cl)c(Cl)c1 | 0.32 mM (≈ 61.1 µg/mL)
N[C@@H](C(=O)N[C@@H]1C(=O)N2C(C(=O)O)=C(Cl)CS[C@H]12)c1ccccc1 | 27.2 mM (≈ 10000 µg/mL)

same assay, conditions: 20 °C

Compound | solubility
CCOC(=O)C(c1c(O)c2ccccc2oc1=O)c1c(O)c2ccccc2oc1=O | 0.375 mM (≈ 153 µg/mL)
O=[N+]([O-])c1ccc(Cl)c(Cl)c1Cl | 0.115 mM (≈ 26 µg/mL)
Clc1ccc(Cl)c(-c2cccc(Cl)c2Cl)c1 | 0.000342 mM (≈ 0.1 µg/mL)
CC(C)(S)[C@@H](N)C(=O)O | 744 mM (≈ 111000 µg/mL)
c1ccc(C(c2ccccc2)(c2ccccc2)N2CCOCC2)cc1 | 6.07e-05 mM (≈ 0.02 µg/mL)
c1ccc2c(c1)ccc1c2ccc2c3ccccc3ccc21 | 1.55e-05 mM (≈ 0.00431 µg/mL)
N[C@@H](Cc1ccc(O)c(O)c1)C(=O)O | 25.4 mM (≈ 5000 µg/mL)
CCNc1nc(NC(C)CC)nc(OC)n1 (stereo not given) | 2.71 mM (≈ 610 µg/mL)
CCSCc1ccccc1OC(=O)NC | 8.08 mM (≈ 1820 µg/mL)
CNC(=O)N(C)c1nc2ccccc2s1 | 0.267 mM (≈ 59 µg/mL)
c1ccc2c(c1)cnc1ccccc12 | 1.67 mM (≈ 300 µg/mL)
CCOP(=S)(OCC)OP(=S)(OCC)OCC | 0.0931 mM (≈ 30 µg/mL)
c1ncc2nc[nH]c2n1 | 4160 mM (≈ 500000 µg/mL)
CCc1ccccc1CC | 0.53 mM (≈ 71.1 µg/mL)
Clc1ccccc1-c1cccc(Cl)c1Cl | 0.00114 mM (≈ 0.293 µg/mL)
Clc1cc(-c2cccc(Cl)c2Cl)cc(Cl)c1Cl | 3.93e-05 mM (≈ 0.0128 µg/mL)
NC[C@H](O)c1ccccc1 | 334 mM (≈ 45800 µg/mL)
CN=C=S | 104 mM (≈ 7600 µg/mL)
N[C@@H](CSSC[C@H](N)C(=O)O)C(=O)O | 0.791 mM (≈ 190 µg/mL)
CNC(=O)Nc1nc2ccccc2s1 | 0.0579 mM (≈ 12 µg/mL)

same assay, conditions: 22 °C

Compound | solubility
O=[N+]([O-])c1ccc(Oc2ccc(Cl)cc2Cl)cc1 | 0.00352 mM (≈ 1 µg/mL)
CCOC(=O)C(=O)C(=O)OCC | 3250 mM (≈ 566000 µg/mL)

same assay, conditions: 24 °C

Compound | solubility
CN(C)CCCN1c2ccccc2Sc2ccccc21 | 0.0499 mM (≈ 14.2 µg/mL)

same assay, conditions: 25 °C

Compound | solubility
Ic1ccc(I)cc1 | 0.00424 mM (≈ 1.4 µg/mL)
CN1C(=O)C(C)(C2=CCCCC2)C(=O)N=C1O (stereo not given) | 1.84 mM (≈ 435 µg/mL)
O=C(O)c1cc([N+](=O)[O-])cc([N+](=O)[O-])c1 | 6.37 mM (≈ 1350 µg/mL)
C=CCBr | 31.7 mM (≈ 3830 µg/mL)
CC(C)CCC(C)(C)C | 0.00897 mM (≈ 1.15 µg/mL)
COP(=S)(OC)SCCSC(C)C | 0.373 mM (≈ 97 µg/mL)
O=C(O)c1ccc([N+](=O)[O-])c([N+](=O)[O-])c1 | 31.6 mM (≈ 6700 µg/mL)
COP(=O)(OC)OC | 3570 mM (≈ 500000 µg/mL)
Cc1ccc(C)c(O)c1 | 29 mM (≈ 3540 µg/mL)
c1ccc2c(c1)Nc1ccccc1S2 | 0.00798 mM (≈ 1.59 µg/mL)
Clc1ccc(-c2cccc(Cl)c2)cc1 | 0.000398 mM (≈ 0.0888 µg/mL)
Cc1ccccc1N1C(=O)c2cc(S(N)(=O)=O)c(Cl)cc2NC1C (stereo not given) | 0.165 mM (≈ 60.3 µg/mL)
CCC(C)(C)C | 0.214 mM (≈ 18.4 µg/mL)
Cc1c(C(=O)O)c(O)cc2c1C(=O)c1c(O)c([C@@H]3O[C@H](CO)[C@@H](O)[C@H](O)[C@H]3O)c(O)c(O)c1C2=O | 2.64 mM (≈ 1300 µg/mL)
NCCCCCC(=O)O | 3850 mM (≈ 505000 µg/mL)
c1ccc2c(c1)OCCOCCOc1ccccc1OCCOCCO2 | 0.0203 mM (≈ 7.3 µg/mL)
CCC1(C2=C[C@H]3CC[C@@H](C2)C3)C(=O)NC(=O)NC1=O | 1.7 mM (≈ 446 µg/mL)
CC/C(=C(/CC)c1ccc(O)cc1)c1ccc(O)cc1 | 0.0447 mM (≈ 12 µg/mL)
ClCCCBr | 14.2 mM (≈ 2240 µg/mL)
CCCCCCc1ccccc1 | 0.00556 mM (≈ 0.902 µg/mL)
CC(=O)CC(C)C | 190 mM (≈ 19000 µg/mL)
C1OCOCO1 | 1940 mM (≈ 175000 µg/mL)
CCCCCCCCCC | 0.000365 mM (≈ 0.052 µg/mL)
CNC(=O)ON=C(C)SC | 358 mM (≈ 58000 µg/mL)

same assay, conditions: 27 °C

Compound | solubility
Cc1cc2ccccc2c2ccc3ccccc3c12 | 0.000256 mM (≈ 0.062 µg/mL)

same assay, conditions: 28 °C

Compound | solubility
CCOC(=O)[C@H](Cc1ccc(O)cc1)NC(C)=O | 13.8 mM (≈ 3480 µg/mL)

same assay, conditions: 30 °C

Compound | solubility
CN1c2ccccc2Sc2ccc(CC(=O)O)cc21 | 0.114 mM (≈ 31 µg/mL)
CN(C)CCN(Cc1ccccc1)c1ccccn1 | 2.3 mM (≈ 587 µg/mL)

— the OPERA property sets (Mansouri et al. 2018)
